Series [1] in a line: Alpha-helicity of compound in PBS buffer at pH 7.4 at 10 uM incubated for 30 mins by CD spectroscopy relative to control. It is filed as physicochemical. The conditions noted are these: pH 7.4, 0.5 h.
In series [2] the test system is Human immunodeficiency virus 1. Briefly: Binding affinity to HIV1 gp41 NHR target surrogate N36 assessed as alpha-helicity at 10 uM incubated for 30 mins by CD spectroscopy (reference value: 26 %).
Series [3] deals with Human immunodeficiency virus 1. The series is described as follows: Binding affinity to HIV1 gp41 NHR target surrogate T21 assessed as alpha-helicity at 10 uM incubated for 30 mins by CD spectroscopy (reference value: 66 %).
In series [4] the test system is Human immunodeficiency virus 1. Briefly: Binding affinity to HIV1 gp41 NHR target surrogate N36 assessed as melting temperature at 10 uM incubated for 30 mins by CD spectroscopy.
Series [5] relates to Human immunodeficiency virus 1. The series is described as follows: Binding affinity to HIV1 gp41 NHR target surrogate T21 assessed as melting temperature at 10 uM incubated for 30 mins by CD spectroscopy.
Series [6] concerns Human immunodeficiency virus 1. Briefly: Antiviral activity against HIV-1 IIIB assessed as inhibition of viral replication measured after 4 days by ELISA. The series is classed as functional, organism-based. The conditions noted are these: Human immunodeficiency virus 1, IIIB, 96 h. In general terms: ELISA stands for enzyme-linked immunosorbent assay.
Series [7] is described as follows: Cytotoxicity against human CEMx174 5.25M7 cells upto 10 uM incubated for 48 hrs by CCK-8 assay. It is filed as toxicity, cell-based. Conditions: cemx174 5.25m7, 48 h.
The next series has as its system MT2. Briefly: Cytotoxicity against human MT2 cells upto 10 uM incubated for 48 hrs by CCK-8 assay. The conditions noted are these: mt2, 48 h. The series is classed as toxicity, cell-based.
Series [8] deals with Human immunodeficiency virus 1. Briefly: Antiviral activity against T20-sensitive HIV-1 D36G assessed as inhibition of viral replication measured after 4 days by ELISA. The series is classed as functional, organism-based.
The subject of series [9] is Human immunodeficiency virus 1. Briefly: Antiviral activity against T20-resistant HIV-1 V38E/N42S assessed as inhibition of viral replication measured after 4 days by ELISA. It is filed as functional, organism-based.
Series [10] has as its system Human immunodeficiency virus 1. The series is described as follows: Antiviral activity against T20-resistant HIV-1 V38A/N42T assessed as inhibition of viral replication measured after 4 days by ELISA. It is filed as functional, organism-based.
Series [11] has as its system Human immunodeficiency virus 1. Briefly: Binding affinity to HIV1 gp41 NHR target surrogate T21 assessed as sedimentation coefficient incubated for 30 mins measured for 0.16 to 7 hrs by Sedimentation velocity analysis. The conditions noted are these: time 0.56-7.5 hrs.
Series [12] has as its system Human immunodeficiency virus 1. Briefly: Inhibition of HIV-1 replication assessed as inhibition of gp41 six-helix bundle formation between T21 and CP32 incubated for 30 mins followed by CP32 addition measured after 30 mins by N-PAGE analysis. The series is classed as functional. Conditions: dose <= 120.0 µM, time 1.0 hrs, DDE = dose-dependent effect.
Series [13] can be described thus: Selectivity ratio of EC50 for antiviral activity against T20-resistant HIV-1 V38E/N42S to EC50 for antiviral activity against T20-sensitive HIV-1 D36G. The series is classed as functional.
Series [14] can be described thus: Selectivity ratio of EC50 for antiviral activity against T20-resistant HIV-1 V38A/N42T to EC50 for antiviral activity against T20-sensitive HIV-1 D36G. The series is classed as functional.
The subject of series [15] is Human immunodeficiency virus 1. The series is described as follows: Antiviral activity against HIV-1 IIIB (B, X4) assessed as inhibition of viral replication measured after 4 days by ELISA. The series is classed as functional, organism-based. The conditions noted are these: Human immunodeficiency virus 1, IIIB (B, X4), 96 h.
For series [16], the system named is Human immunodeficiency virus 1. Briefly: Binding affinity to HIV1 gp41 NHR target surrogate T21 at 50 uM incubated for 30 mins by N-PAGE analysis.
The test system of series [17] is Human immunodeficiency virus 1. Briefly: Binding affinity to HIV1 gp41 NHR target surrogate T21 assessed as binding constant, K by isothermal titration calorimetry.

The source made the active and inactive calls. The calls are words filed in the database; no cut-off is given here. Where a SMILES comes first, the peptide text is derived from it. [ ]: non-standard residue; d: D form. The star is where a group is joined. O(cholesteryl) = CC(C)CCC[C@@H](C)[C@H]1CC[C@H]2[C@@H]3CC=C4C[C@@H](O*)CC[C@]4(C)[C@H]3CC[C@]12C; PEG24 = NCCOCCOCCOCCOCCOCCOCCOCCOCCOCCOCCOCCOCCOCCOCCOCCOCCOCCOCCOCCOCCOCCOCCOCCOCCC(=O)O

What is called EC50 is the concentration at which the effect is half-maximal. For the compound `CC[C@H](C)[C@H](NC(=O)[C@H](CCC(N)=O)NC(=O)[C@H](CCC(=O)O)NC(=O)[C@H](CCC(=O)O)NC(=O)[C@@H](NC(=O)[C@H](CCCCN)NC(=O)[C@H](CCCCN)NC(=O)[C@@H](NC(=O)[C@H](CC(C)C)NC(=O)[C@H](CCC(=O)O)NC(=O)[C@H](CCC(=O)O)NC(=O)[C@H](CO)NC(=O)[C@H](CCCCN)NC(=O)[C@H](CCCCN)NC(=O)[C@@H](NC(=O)[C@H](CC(C)C)NC(=O)[C@H](CCC(=O)O)NC(=O)[C@H](CCC(=O)O)NC(=O)[C@@H](NC(=O)[C@H](CCCCN)NC(=O)[C@H](CCCCN)NC(=O)[C@H](CO)NC(=O)[C@H](Cc1c[nH]c2ccccc12)NC(=O)[C@H](CCC(=O)O)NC(=O)[C@H](CCC(=O)O)NC(=O)[C@H](Cc1c[nH]c2ccccc12)NC(=O)[C@H](CCCCN)NC(=O)[C@H](CCCCN)NC(=O)[C@@H](NC(=O)[C@H](CO)NC(=O)[C@H](CCC(=O)O)NC(=O)[C@H](CCC(=O)O)NC(=O)[C@H](CCC(N)=O)NC(C)=O)[C@@H](C)CC)[C@@H](C)CC)[C@@H](C)CC)[C@@H](C)CC)[C@@H](C)CC)C(=O)N[C@@H](CCCCN)C(=O)N[C@@H](CCCCN)C(=O)NCCOCCOCCOCCOCCOCCOCCOCCOCCOCCOCCOCCOCCOCCOCCOCCOCCOCCOCCOCCOCCOCCOCCOCCOCCC(=O)N[C@@H](CS)C(=O)O[C@H]1CC[C@@]2(C)C(=CC[C@H]3[C@@H]4CC[C@H]([C@H](C)CCCC(C)C)[C@@]4(C)CC[C@@H]32)C1` (Ac-QEESIKKWEEWSKKIEELIKKSEELIKKIEEQIKK[PEG24]C-{O(cholesteryl)}), the Activity was 56% in series [1]; 81% in [2]; 94% in series [3]; “Non-Toxic” in series [7]; “Non-Toxic” with MT2. The results for the Tm in series [4] and in series [5] were 50 °C and 68 °C, respectively. Moreover, the half-maximal effective concentration (EC50) in [6] worked out at 5.21 nM; in [8], 1.62 nM; in [9], 5.07 nM; in [10] it was 2.38 nM. Also, the S20,w in [11] is 2.43 S. Moreover, the inhibition result in series [12] was “Dde”. Moreover, the “Ratio EC50” value was determined as 3.1 in [13] and 1.5 in series [14].

For the compound “Ac-QEESIKKWEEWSKKIEELIKKSEELIKKIEEQIKK-NH2”, the EC50 in series [15] was 64.5 nM. In addition, the Activity worked out at 63% in [1], 92% in [2] and 100% in series [3]. The Tm turned out to be 52 °C in series [4] and 74 °C in [5]. Moreover, the outcome in series [16] was Active. Also, the K in [17] is 1.59 10^5/M.

The values are drawn from ChEMBL document CHEMBL5131511, “Design of artificial α-helical peptides targeting both gp41 deep pocket and subpocket as potent HIV-1 fusion inhibitors” (Eur J Med Chem, 2022).
